Data set [1] can be described thus: Cytotoxicity against Parkinson's disease patient human ONS derived C1200080013 cells assessed as cell death at 30 uM incubated for 24 hrs. In kind it is cell-based. As to conditions: c1200080013, 24 h.
A short description of data set [2]: Induction of cytological phenotypic changes in cellular organelles in Parkinson's disease patient human ONS derived C1200080013 cells assessed as perturbation of auto-phagosomal features by measuring depletion in LC3b staining intensity at 30 uM incubated for 24 hrs by anti-LC3b1/335/DAPI staining based fluorescence microscopic analysis. As to conditions: c1200080013, 24 h. In kind it is tissue-based.

Data set [3] in a line: Induction of cytological phenotypic changes in cellular organelles in Parkinson's disease patient human ONS derived C1200080013 cells assessed as perturbation of mitochondria features by measuring reduction in MitoTracker staining intensity at 30 uM incubated for 24 hrs by MitoTrackerOrange CMTMRos/DAPI staining based fluorescence microscopic analysis. As to conditions: c1200080013, 24 h.

Data set [4] in a line: Induction of cytological phenotypic changes in cellular organelles in Parkinson's disease patient human ONS derived C1200080013 cells assessed as perturbation of early endosomal features by measuring reduction in EEA1 staining intensity at 30 uM incubated for 24 hrs by LysoTrackerRed DND-99/anti-EEA1 staining based fluorescence microscopic analysis. As to conditions: c1200080013, 24 h. The class given is tissue-based.

Data set [5] in a line: Induction of cytological phenotypic changes in cellular organelles in Parkinson's disease patient human ONS derived C1200080013 cells assessed as changes in mitochondria marker intensity in inner region of cytoplasm at 20 uM incubated for 24 hrs by MitoTrackerOrange CMTMRos/DAPI staining based fluorescence microscopic analysis. As to conditions: c1200080013, 24 h.
Data set [6] is described as follows: Induction of cytological phenotypic changes in cellular organelles in Parkinson's disease patient human ONS derived C1200080013 cells assessed as perturbation of auto-phagosomal LC3b marker intensity in inner region of cytoplasm by measuring log2ratio at 30 uM incubated for 24 hrs by anti-LC3b1/335/DAPI staining based fluorescence microscopic analysis. In kind it is tissue-based. As to conditions: c1200080013, 24 h.

In a further data set the test system is C1200080013. Nature of the data set: Induction of cytological phenotypic changes in cellular organelles in Parkinson's disease patient human ONS derived C1200080013 cells assessed as perturbation in mitochondrial features by measuring punctuate and fragmented mitochondrial morphology at 30 uM incubated for 24 hrs by MitoTrackerOrange CMTMRos/DAPI staining based fluorescence microscopic analysis. In kind it is functional, cell-based.

Data set [7] is described as follows: Induction of cytological phenotypic changes in cellular organelles in Parkinson's disease patient human ONS derived C1200080013 cells assessed as perturbation of EEA1 marker intensity in cytoplasm by measuring log2ratio at 30 uM incubated for 24 hrs by LysoTrackerRed DND-99/anti-EEA1 staining based fluorescence microscopic analysis. In kind it is tissue-based. As to conditions: c1200080013, 24 h.

Data set [8] in a line: Induction of cytological phenotypic changes in cellular organelles in Parkinson's disease patient human ONS derived C1200080013 cells assessed as perturbation of mitochondria marker intensity in inner region of cytoplasm by measuring log2ratio at 30 uM incubated for 24 hrs by MitoTrackerOrange CMTMRos/DAPI staining based fluorescence microscopic analysis. The class given is functional.

Data set [9] can be described thus: Induction of cytological phenotypic changes in cellular organelles in Parkinson's disease patient human ONS derived C1200080013 cells assessed as changes in features associated with early endosome antigen1 by measuring alteration in EEA1 staining intensity at 10 uM incubated for 24 hrs by LysoTrackerRed DND-99/anti-EEA1 staining based fluorescence microscopic analysis. The class given is […]. As to conditions: c1200080013, 24 h.

Activity calls are given as the source filed them. No cut-off for these calls is given here.

In the case of `C[n+]1cc2c3c(ccc2c2ccc4cc5c(cc4c21)OCO5)OCO3` [SANGUINARIUM], the Activity result in [1] is “Toxic”. For the molecule `COc1cc(/C=C/C(=O)O[C@@H]2C[C@](O)(C(=O)O)C[C@@H](O)[C@H]2O)ccc1O`, the Activity result in data set [2], in [3] and in [4] was “Non-Toxic” in each case. On to `COc1ccc2c(c[n+](C)c3c4cc5c(cc4ccc23)OCO5)c1OC` [CHELERYTHRINE], for which the Activity result in [1] is recorded as “Toxic”. On to `C=C(C)[C@H]1Cc2c(ccc3c2O[C@@H]2COc4cc(OC)c(OC)cc4[C@@H]2C3=O)O1` [ROTENONE], for which the Activity result in [5] is given as “Toxic”. As for `COc1ccc2c(c1OC)C(C(C)O)N(C)c1c-2ccc2cc3c(cc12)OCO3` (configuration not stated), in data set [6], the “log(ratio)” value is reported as -0.99. For `COc1ccc2c(c1OC)C(CO)N(C)c1c-2ccc2cc3c(cc12)OCO3` (configuration not stated), the outcome in the data set on C1200080013 was Active. The results for the “log(ratio)” value in [7] and in data set [8] were -0.73 and -0.85, respectively. Consider `CCN(CC)CCCC(C)Nc1ccnc2cc(Cl)ccc12` (configuration not stated) [CHLOROQUINE], for which the values for the Activity result in [2] and in [9] were “Non-Toxic” and “Toxic”, respectively. On to `COc1cc(OC)c2c(c[n+](C)c3c4cc5c(cc4ccc23)OCO5)c1OC`, for which the Activity entry in data set [1] was “Toxic”. Consider `COc1cc(/C=C/C(=O)O)ccc1O[C@@H]1O[C@H](CO)[C@@H](O)[C@H](O)[C@H]1O`, for which the Activity result in data set [2], in data set [3] and in data set [4] was “Non-Toxic” each time. Regarding `COc1cc2c(c3c[n+](C)c4c5cc6c(cc5ccc4c13)OCO6)OCO2`, the Activity result in data set [1] is “Toxic”.

The record behind these values is ChEMBL document CHEMBL4665861, “Chemical constituents from Macleaya cordata (Willd) R. Br. and their phenotypic functions against a Parkinson's disease patient-derived cell line” (Bioorg Med Chem, 2020).
